According to patent US10570176B2, “Anti-hepatitis B virus X protein polypeptide pharmaceutical” (priority 2015, dated 2020):
Where “and” joins values, the source holds several entries; their conditions need not be identical. Identical values can stand only once. Marks after values point to notes of the source that are not given here. Non-standard residues stand in square brackets, D forms with d. Residues, ends and D or L forms follow the SMILES beside them.

Assays:
HBx protein = target: T1, HBx protein (Hepatitis B virus genotype D subtype ayw, UniProt P03165); assay: In vitro binding to recombinantly expressed HBx protein, Biacore 3000
T1 construct: made in house
Method: The recombinant plasmid (pET-30a-HBx) expressing HBx gene was self-constructed and preserved (Zhang H, et al. J Biomed Biotechnol, doi:10.1155/2009/289068), and then expression and purification of HBx were conducted according to above reference for the measurement of in vitro binding ability. Biacore 3000 biomolecular interaction analyzing unit (manufactured by GE Healthcare) was utilized to measure in vitro binding ability of polypeptide D-TTK001 to recombinantly expressed HBx protein. Polypeptide at different concentrations were injected for 180 seconds at a rate of 30 μL/min. In dissociation stage, HBS-EP buffer was injected for 900 seconds at a rate of 30 μL/min, then at a rate of 30 μL/min, 2 shots of 1 mM NaOH were injected for 20 seconds to regenerate the chip. All signals were calibrated using channel 1 as the reference channel. Binding measurement was conducted twice, respectively, wherein in the first measurement, HBX was injected into the channel of the coupled polypeptide and the blank channel at concentrations of 0 nM, 10 nM, 50 nM, 100 nM, 500 nM and 600 nM, respectively. Binding time was 180 seconds and dissociation time was 400 seconds. On chip surface, 1 mM NaOH was injected for 20 seconds at a rate of 30 μL/min for regeneration. In the second measurement, HBX was injected into the channel of coupled polypeptide and the blank channel at concentrations of 0 nM, 10 nM, 50 nM, 588 nM, 1 μM, and 2 μM, respectively. Binding time was 180 seconds and dissociation time was 400 seconds. On chip surface, 1 mM NaOH was injected for 20 seconds at a rate of 30 μL/min for regeneration. Results were kinetically analyzed by BIA Evaluation Software.

HBV transgenic mice [1] = assay: Serum HBV DNA copy number in HBV transgenic mice, real-time PCR; type: in vivo; conditions: for effective rate (serum HBV DNA): tail i.v. daily
Text: HBV transgenic mice were purchased from Guangzhou Junketaite Pharmaceutical Technology Co., Ltd. The animal model is a 1.3 copies high expressing replicative form HBV whole-genome transgenic mice Tg (HBV 1.3 genome) Swb established using microinjection method by Guangzhou Junketaite Pharmaceutical Technology Co., Ltd. Serum HBsAg and HBeAg can be analyzed with common ELISA kit; serum HBV DNA of 93.93% positive transgenic mice is 10^4˜10^6 copy/mL; liver tissues in immunohistochemistry have HBsAg (cytoplasmic type) and HBcAg (karyotype) expression. […] This makes a good foundation for the transgenic model to be used in evaluating anti-HBV drugs.
(§1) Prepare D-TTK001 aseptically. Administer 2.5 mg/kg (10 mice) or 5.0 mg/kg (42 mice) based on mice weight through tail intravenous injection in a volume of 50 μL. Administer 50 μL of sterile PBS to blank control group (10 mice). Mice are 6-8 months old, half male and half female. Inject daily for 3 weeks (21 days in total). Take artery blood from mice tail before administration for future measurement of HBV DNA content in mice blood, record as T0 group. Take artery blood from mice tail after one week (T1+ group), two weeks (T2+ group), and three weeks (T3+ group) of administration. Take blood after one week of stopping administration (T4 group). Blood samples were standed in room temperature for 2-4 hours to prepare serum. Store samples in −80° C. refrigerator for future measurement of HBV DNA content in mice blood.
(i) Preparation of test samples: Take out the test samples from −80° C. refrigerator. Place it at room temperature for balancing. Take corresponding amount of reaction liquid, enzyme mix and internal standard by proportion (reaction liquid 38 μL per serving+enzyme mix 2 μL per serving+internal standard 0.2 μL per serving) according to numbers of test sample, negative control sample and reference sample, mix sufficiently as PCR-mix. Sample treatment (negative control, positive control quantitative reference and test samples are treated synchronously): Add 5 μL of cell nucleic releaser into each PCR reaction tube, then add 5 μL test sample into each tube, absorb back and forth for 3-5 times and mix; after more than 10 minutes interval, add 40 μL of PCR-mix into each tube, close the tubes with caps, centrifuge at 2000 rpm for 30 seconds.
Utilizing real time PCR HBV DNA assay kit manufactured by Sun Yat-sen University Daan Gene Co., Ltd. according to the manufacturer's specification as followed: Place PCR reaction tube into sample cell of PCR instrument, set negative control, positive control, quantitative references A-D and test sample in corresponding order, and then set sample name and concentration of quantitative reference. Selection of fluorescence detection channel: for example, in ABI 7300 instrument, i) select FAM channel (reporter: FAM, quencher: none) to detect HBV-DNA; ii) select HEX/VIC channel (reporter: HEX/VIC, quencher: none) to detect HBV-internal standard; iii) set passive reference as ROX.
Set analysis conditions: adjust start value, stop vale of Baseline and Value of Threshold according to analyzed image (arbitrary adjustable by user according to actual needs, start value can be 1˜10, stop value can be 5˜10, Value can be 0.01˜0.2) to optimize standard curve in “Std curve” window, i.e., correlation between −1.0˜−0.97. Select “Analyze” in “Analysis” menu for automatic result analysis. Record value (C) of unknown variable in “Tray” window. “C” indicates concentration or content of the sample.

HBV transgenic mice [2] = assay: Pathological observation of liver tissue of HBV transgenic mice; type: in vivo; conditions: 5 mg/kg, tail intravenous injection, 3 weeks treatment
Method: as §1
After above experiments on HBV transgenic mice were finished, mice were sacrificed, and liver tissue was taken, fixed with formalin, embed with conventional method, to prepare tissue biopsies, pathological observation was then conducted.

[3] = tested on: HepG2-X cells inoculated tumor in nude mice; assay: Survival of nude mice bearing HepG2-X inoculated tumor; type: in vivo; conditions: 0.1 mg/kg or 5.0 mg/kg, tail i.v. daily for 30 days
Method: Suspend HepG2-X cells at exponential phase by treating with trypsin, count the number of cells, dilute to 1×10^7 cells/mL with sterile physiological saline, and then store in ice water. Take two female BALB/C mice of 4˜6 weeks age: i) one mouse in control group, inject 0.2 mL of above diluted cells to the armpit of right forelimb for each mouse, then only inject 0.5 mL of sterilized distilled water (without polypeptide drugs); ii) one mouse in experimental group with an administration dose of 10 mg/kg weight. Inject 0.2 mL of above diluted cells to the armpit of right forelimb for each mouse, after 20 days of injection, remove tumor tissue aseptically, cut into small tissue pieces, back inoculate to female BALB/C mice of 4˜6 weeks age for 18 mice in total. After tumor volume (V=L×W^2 0.5) reaches 100 mm^3, divide 18 mice into 3 groups each having 6 mice. The first group is control group, tail intravenous injecting with sterile PBS. […] Inject daily for 30 days, measure mice weight and tumor volume before each injection, and observe survival time of nude mice. After mice dies, perform analysis using Kaplan-Meier method to plot survival curve, Log-Rank is employed for statistical analysis.

[4] = Acute toxicity test in Kunming white mice; type: in vivo; conditions: 500 mg/kg, tail intravenous injection, observed 24 hrs
Method: Control group and experimental group each consists of 10 Kunming white mice, with 5 females and 5 males in each group, respectively. Experimental group were injected with polypeptide D-TTK001 with the concentration of 500 mg/kg (10 mg lyophilized polypeptide dissolved in 0.8 mL sterilized distilled water) by tail intravenous injection; control group were injected with 0.8 mL sterilized distilled water. Consecutively observing the mice for 24 hrs. after injection.

in vivo = conditions: rat, plasma, iv, 3.5 mg/kg
Text: Blood samples were collected and placed the heparinized test tubes according to blood collection times.

T1 sequence (P03165 whole entry): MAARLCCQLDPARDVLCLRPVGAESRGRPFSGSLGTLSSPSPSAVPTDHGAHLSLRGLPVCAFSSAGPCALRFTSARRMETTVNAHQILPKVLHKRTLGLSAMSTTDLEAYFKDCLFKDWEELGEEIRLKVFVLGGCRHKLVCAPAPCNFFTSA

Structure (SMILES): CSCC[C@@H](NC(=O)[C@H](NC(=O)[C@@H](C)NC(=O)[C@@H](CO)NC(=O)CN)C(C)C)C(=O)N[C@H](Cc1ccccc1)C(=O)N[C@H](CO)C(=O)N[C@H](CO)C(=O)N[C@H](CCCCN)C(=O)N[C@H](CCC(=O)O)C(=O)N[C@H](CCCNC(=N)N)C(=O)NCC(=O)O [D-TTK001, Gly-D-Ser-D-Ala-D-Val-D-Met-D-Phe-D-Ser-D-Ser-D-Lys-D-Glu-D-Arg-Gly] (H-G[dS][dA][dV][dM][dF][dS][dS][dK][dE][dR]G-OH; N-terminus and C-terminus assumed)
- Kd (HBx protein; KD, Biacore 3000, first and second measurement): 29.9 nM and 40.3 nM
- in vitro binding to HBx compared with L-polypeptide anti-HBxP1# (HBx protein; comparison in words): lower than that of L-polypeptide anti-HBxP1#
- Kd (HBx protein; in vitro binding to HBx, in vitro binding analysis results): 35 nM
- copy number of HBV DNA in serum (HBV transgenic mice [1]; 2.5 mg/kg and 5.0 mg/kg, tail intravenous injection): clearly reduced
- effective rate (serum HBV DNA) (HBV transgenic mice [1]; 2.5 mg/kg group, from one week (T1+ group), 3 out of 10 mice): 30%
- effective rate (serum HBV DNA) (HBV transgenic mice [1]; 5.0 mg/kg group, 23 out of 42 mice): 54.8%
- time dependent decreasing effective rate (HBV transgenic mice [1]; 5.0 mg/kg group, 7 out of 23 mice): 30.4%
- effective rate (serum HBV DNA) from one week (T1+ group) (HBV transgenic mice [1]; 5.0 mg/kg group, 18 out of 39 mice): 46.2%
- ballooning degeneration of hepatocytes in liver tissue (HBV transgenic mice [2]): none of 6 mice in experimental group showed ballooning degeneration of hepatocytes
- survival of tumor bearing nude mice [3]: clearly prolonged
- acute toxicity: behaviors [4]: do not have abnormal behaviors
- acute toxicity: changes in weight as compared with control group [4]: no abnormal changes in weight
- C0 (in vivo): 36500 ng/mL
- Vd (in vivo): 0.207 L/kg
- AUC(0-t) (in vivo; AUC0-t, Mean, rats, intravenous injection 3.5 mg/kg, mean of 6): 20800 ng·h/mL
- AUC(0-inf) (in vivo; AUC0-∞, Mean, rats, intravenous injection 3.5 mg/kg, mean of 6): 24100 ng·h/mL
- clearance (in vivo; CL, Mean, rats, intravenous injection 3.5 mg/kg, mean of 6): 3 mL/min/kg
- Cmax (in vivo; Cmax, Mean, rats, intravenous injection 3.5 mg/kg, mean of 6): 35800 ng/mL
- half-life (in vivo; t½, Mean, rats, intravenous injection 3.5 mg/kg, mean of 6): 55.3 min
